Test results taken from US8372397B2, “Methods for regulation of stem cells” (priority 2004, dated 2013).

How the values were obtained:
GSK-3 = settings: Ring et al. 2003 / Cline et al. 2002, cited from earlier work; for EC50: read-out: half-maximal effective concentration [EC50]
[1] = mouse, in vivo, ip, 30 mg/kg
Experimental: (b) Blood glucose levels in peripheral blood of recipient mice following 5-week in vivo administration of 30 mg/kg GSK-3 inhibitor or vehicle control. Error bars represent SEM (n=6).

## O=[N+]([O-])c1ccc(NCCNc2ncc(-c3ncc[nH]3)c(-c3ccc(Cl)cc3Cl)n2)nc1 [CHIR-837]
GSK-3
  selectivity for GSK-3: > 5,000 fold
  EC50: 375 nM

## Cc1c[nH]c(-c2cnc(NCCNc3ccc(C#N)cn3)nc2-c2ccc(Cl)cc2Cl)n1 [CHIR-911]
GSK-3
  EC50: […]
[1]
  glycemic state (blood glucose) of transplanted recipients: maintaining a normoglycemic state
